Results: patent US20080090278A1, “METHOD FOR ENHANCING STABILITY OF A COMPOSITION COMPRISING SOLUBLE GLUCOSE DEHYDROGENASE (GDH)” (TOYO BOSEKI KABUSHIKI KAISHA, priority 2006, published 2008)

Experiments:
[1] = system: recombinant FAD-GDH (rAO-FAD-GDH) derived from Aspergillus oryzae; assay: Thermal stabilization effect of stabilizing agents on rAO-FAD-GDH in solution (Examples 3-6); type: physicochemical; settings: for thermal stabilization effect on FAD-GDH (in words): 50° C. for 15 minutes, Example 3
Protocol: Enhancement of the thermal stability referred to herein means increasing of a residual ratio (%) of the GDH enzyme kept after giving the treatment with heat at a certain temperature for a certain time period to the composition comprising the GDH enzyme. In the present invention, the activity in the sample stored at 4° C. which is nearly completely kept is made 100%, this is compared with the activity in the GDH solution after giving the treatment with heat at a certain-temperature for a certain time period, and the residual ratio of the enzyme is calculated.
In the method for measuring the activity described in the method for measuring the GDH enzyme activity described later, an activity value (a) of GDH in the solution stored at 4° C. and an activity value (b) of GDH after giving the treatment with heat at a certain temperature for a certain time period were measured, a relative value[(b)/(a)×100] when the activity value (a) was made 100 was calculated. This relative value was made the residual ratio (%). Comparing the presence with the absence of the added compound, when the residual ratio was increased by the addition of the compound, it was determined that the thermal stability was enhanced.
In the present invention, the activity of FAD-dependent GDH is measured as follows.
The reaction-reagent is made by mixing 15.6 mL of the PIPES buffer, 0.2 mL of the DCPIP solution and 4 mL of the D-glucose solution.
(§1) The reaction reagent (3 mL) is preliminarily heated at 37° C. for 5 minutes. The GDH solution (0.1 mL) is added and gently mixed, subsequently the change of absorbance at 600 nm is recorded for 5 minutes using the spectrophotometer controlled to 37° C. using water as the control, and the change of absorbance per one minute (ΔODTEST) is calculated from the linear portion of the record. The solvent in which GDH will be dissolved in place of the blinded GDH solution is added to the reagent mixture, and the change of absorbance (ΔODBLANK) per one minute is measured. The GDH activity is calculated from these values according to the following formula. One unit (U) in the GDH activity is defined as the amount of the enzyme which reduces […] DCPIP for one minute in the presence of 200 mM D-glucose. Activity (U/mL)=[−(ΔODTEST−ΔODBLANK)×3.0×dilution scale]/(16.3×0.1×1.0) In the above formula, 3.0 represents a liquid amount (mL) of the reaction reagent+the enzyme solution, 16.3 represents a millimolar molecular absorbance coefficient (cm^2/μmol) in the condition for measuring this enzyme, 0.1 represents the liquid amount of the enzyme solution (mL) and 1.0 represents a light path length (cm) of the cell.
The study was performed in accordance with the method for measuring the FAD-GDH activity in Test Example 1 described above.
First, 50 mL of an enzyme solution obtained by dissolving the recombinant FAD-GDH (rAO-FAD-GDH)-derived from Aspergillus oryzae obtained in Example 1 at about 2 U/mL in an enzyme dilution solution (50 mM potassium phosphate buffer, pH 5.5, 0.1% Triton X-100) was prepared. Two tubes in which each stabilizing agent described in Table 1 had been added at each final concentration to 0.9 mL of this enzyme solution to make the total volume 1.0 mL were prepared.
(§2) In two tubes, one tube was stored at −4° C. and another tube was treated at 50° C. for 15 minutes. Then, the FAD-GDH activity in each tube was measured. The enzyme activity in the tube stored at 4° C. was made 100, and comparing with it, the activity value after being treated at 50° C. for 15 minutes was calculated as the residual activity ratio (%).
The method was in accordance with Example 3 described above.
The methods were in accordance with Example 3 above.

[2] = system: recombinant FAD-GDH (rAT-FAD-GDH) derived from Aspergillus terreus; assay: Thermal stabilization effect of stabilizing agents on rAT-FAD-GDH in solution (Example 9); type: physicochemical; settings: for Residual activity ratio (%) / GLD activity value (U/ml) 50° C., 15 min: Table 10, buffer 50 mM K-PB, stabilizer at each final concentration described in Table 1; for Residual activity ratio (%): 50° C., 15 min versus 4° C.; for thermal stabilization effect on FAD-GDH (in words): rAT-FAD-GDH, 50° C. for 15 minutes, Example 9
Protocol: as §1, with “D-glucose.” for “D-glucose. Activity (U/mL)=[−(ΔODTEST−ΔODBLANK)×3.0×dilution scale]/(16.3×0.1×1.0) In the above formula, 3.0 represents a liquid amount (mL) of the reaction reagent+the enzyme solution, 16.3 represents a millimolar molecular absorbance coefficient (cm^2/μmol) in the condition for measuring this enzyme, 0.1 represents the liquid amount of the enzyme solution (mL) and 1.0 represents a light path length (cm) of the cell.”
Two tubes in which each stabilizing agent described in Table 1 had been added at each final concentration to 0.9 mL of this enzyme solution to make the total volume 1.0 mL were prepared.
as §2, with “4°” for “−4°”

[3] = stabilizer final concentration 1%, rAO-FAD-GDH about 2 U/mL, 50 mM potassium phosphate buffer pH 5.5, 0.1% Triton X-100, 4° C. sample = 100
[4] = stabilizer final concentration 0.10%, rAO-FAD-GDH, pH 5.5
[5] = stabilizer final concentration 0.20%, rAO-FAD-GDH, pH 5.5
[6] = stabilizer final concentration 0.25%, rAO-FAD-GDH, pH 5.5

Row | SMILES | thermal stabilization effect on FAD-GDH (in words) ([1]; rAO-FAD-GDH) | Residual activity ratio (%) after treatment at 50° C., 15 min [1, 3] | Residual activity ratio (%) [2] | thermal stabilization effect on FAD-GDH (in words) [2] | Residual activity ratio (%) after treatment at 50° C., 15 min [1, 4] | Residual activity ratio (%) after treatment at 50° C., 15 min [1, 5] | Residual activity ratio (%) after treatment at 50° C., 15 min [1, 6] | GLD activity value (U/ml) 50° C., 15 min [2]
1 | N[C@@H](CC(=O)[O-])C(=O)[O-].[Na+].[Na+] [Sodium L-aspartate] | high effect | 23.0% | 3.7% | high effect | – | – | – | 0.102 U/ml
2 | N[C@H](CCC(=O)O)C(=O)O [D-glutamic acid] | high effect | – | 5.6% | high effect | 23.2% | – | – | 0.149 U/ml
3 | O=S(=O)([O-])[O-].[Na+].[Na+] [Sodium sulfate] | high effect | – | – | high effect | – | – | – | –
4 | Cl.NCCCC[C@H](N)C(=O)O [L-lysine hydrochloride] | high effect | 23.4% | 3.5% | high effect | – | – | – | 0.093 U/ml
5 | O=C[C@H](O)[C@@H](O)[C@H](O)[C@H](O)C(=O)[O-].[Na+] [D-sodium glucuronate] | high effect | 56.2% | 10.0% | high effect | – | – | – | 0.279 U/ml

More lines, main results first:

Row | thermal stabilization effect on FAD-GDH (in words) ([1]; rAO-FAD-GDH) | Residual activity ratio (%) after treatment at 50° C., 15 min [1, 3] | Residual activity ratio (%) [2] | thermal stabilization effect on FAD-GDH (in words) [2] | Residual activity ratio (%) after treatment at 50° C., 15 min [1, 4] | Residual activity ratio (%) after treatment at 50° C., 15 min [1, 5] | Residual activity ratio (%) after treatment at 50° C., 15 min [1, 6] | SMILES | GLD activity value (U/ml) 50° C., 15 min [2]
6 | high effect | 59.0% | 7.3% | high effect | – | – | – | OC[C@H]1O[C@H](OCC2O[C@@H](O)[C@H](O)[C@@H](O)[C@@H]2O)[C@H](O)[C@@H](O)[C@H]1O (stereo partly drawn) [a-D-(+)-melibiose] | 0.197 U/ml
7 | – | – | 1.4% | – | 22.2% | – | – | CC(C)C[C@H](N)C(=O)O [L-leucine] | 0.038 U/ml
8 | high effect | 53.6% | 9.4% | high effect | – | – | – | CO[C@H]1O[C@H](CO)[C@@H](O)[C@H](O)[C@H]1O [Methyl-a-D-glucoside] | 0.267 U/ml
9 | – | – | 1.2% | – | – | 22.3% | – | N[C@@H](Cc1ccccc1)C(=O)O [L-phenylalanine] | 0.031 U/ml
10 | – | 0.0% | 0.1% | – | – | – | – | O=C1O[C@H](CO)[C@@H](O)[C@H](O)[C@H]1O [Glucono-1,5-lactone] | 0.003 U/ml
11 | – | – | 0.5% | – | – | – | 11.4% | N[C@@H](Cc1c[nH]cn1)C(=O)O [L-histidine] | 0.015 U/ml
12 | – | – | 1.6% | – | – | 22.8% | – | NC(=O)C[C@H](N)C(=O)O [L-asparagine] | 0.044 U/ml
13 | – | – | 1.7% | – | – | – | 23.4% | CC[C@H](C)[C@H](N)C(=O)O (racemic) [DL-isoleucine] | 0.047 U/ml
